US12227742B2, “Nucleic acid modifiers” (THE BROAD INSTITUTE, INC., priority 2017, dated 2025)
“Also recorded” adds a separate entry of the source.

Assays:
[1] = tested on: Factor VII; conditions: LNP siRNA systems containing these lipids; cited from earlier work
[2] = tested on: supercoiled plasmid DNA; assay: Plasmid DNA cleavage by small-molecule strand breakers (gel electrophoresis); type: biochemical; conditions: for DNA cleavage activity on supercoiled plasmid: gel electrophoresis, FIG. 19A-19D; for DNA cleavage activity on supercoiled plasmid / Effect of reducing agent on DNA cleavage: supercoiled plasmid; for Effect of reducing agent on DNA cleavage: with reducing agent, FIG. 19A, 19B
Description: Nitracrine (compound 1.15) was synthesized according to the reaction scheme depicted in FIG. 5. Plasmid DNA was incubated with nitracrine alone (10, 12, 14 μM), nitracrine with exposure to UV (365 nm), or nitracrine with exposure to UV and reducing agent TCEP (FIG. 8A). The same experiment was repeated but using 16, 18, or 20 μM nitracrine (FIG. 8B).
Plasmid DNA was incubated with nitracrine alone (10, 12, 14 μM), nitracrine with exposure to UV (365 nm), or nitracrine with exposure to UV and reducing agent DTT (FIG. 9A). The same experiment was repeated but using 16, 18, or 20 μM nitracrine (FIG. 9B).
Plasmid DNA was incubated with 16 μM nitracrine and exposed to UV (365 nm) over a range of 30-60 minutes (FIG. 10).
DNA cleavage activity of synthetic strand breakers. A series of small molecule DNA strand breakers having diverse structures and cleavage mechanisms were tested (FIG. 19A-19D). A supercoiled plasmid was used as a model substrate DNA, as both single and double-strand breaks can easily be detected using gel electrophoresis.

[3] = tested on: pcDNA; assay: pcDNA cleavage by compound 1.15, gel electrophoresis; type: biochemical
[4] = tested on: target DNA; assay: AsCpf1 activity, mutational analysis; type: biochemical

In the case of `CCCCC/C=C\C/C=C\CCCCCCCC(=O)OCC(CN(C)C)OC(=O)CCCCCCC/C=C\C/C=C\CCCCC` (stereo not shown) [DLinDAP, 1,2-dilineoyl-3-dimethylammonium-propane], the “gene silencing potency in hepatocytes in vivo (rank order)” value (“gene silencing potency in hepatocytes” below) [1] is given as “DLinKC2-DMA>DLinKDMA>DLinDMA>>DLinDAP”.
For `CCCCC/C=C\C/C=C\CCCCCCCCOCC(CN(C)C)OCCCCCCCC/C=C\C/C=C\CCCCC` (stereo not shown) [DLinDMA, 1,2-dilinoleyloxy-3-N,N-dimethylaminopropane], the “gene silencing potency in hepatocytes” value [1] is listed as “DLinKC2-DMA>DLinKDMA>DLinDMA>>DLinDAP”.
For `CCCCC/C=C\C/C=C\CCCCCCCCC1(CCCCCCCC/C=C\C/C=C\CCCCC)OCC(CCN(C)C)O1` (stereo not shown) [DLinKC2-DMA, 1,2-dilinoleyl-4-(2-dimethylaminoethyl)-[1,3]-dioxolane], the “gene silencing potency in hepatocytes” value [1] is given as “DLinKC2-DMA>DLinKDMA>DLinDMA>>DLinDAP”.
In the case of `CCCCC/C=C\C/C=C\CCCCCCCCC1(CCCCCCCC/C=C\C/C=C\CCCCC)OCC(CN(C)C)O1` (stereo not shown) [DLinKDMA, 1,2-dilinoleyloxy-keto-N,N-dimethyl-3-aminopropane], the “gene silencing potency in hepatocytes” value [1] is listed as “DLinKC2-DMA>DLinKDMA>DLinDMA>>DLinDAP”.
In the case of `CC(C)C(=O)O[C@H]1c2c(c3c(=O)c4cccc(O)c4c(=O)c=3c2=[N+]=[N-])[C@@H](O)[C@H]2O[C@@]21C` [FL-120B], the “DNA cleavage activity on supercoiled plasmid” value (“DNA cleavage activity” for short) [2] is reported as “cleave DNA at low micromolar concentrations” and the “Effect of reducing agent on DNA cleavage” value [2] is reported as “accelerated by a reducing agent”.
In the case of `CC[C@@]1(O[C@H]2C[C@H](OC)[C@@H](O)[C@H](C)O2)[C@H](O[C@@H]2C[C@H](O)[C@@H](N(C)C)[C@H](C)O2)C2=Cc3c(O)c4c(c(O)c3C2=C(O)[C@@H]1[C@H]1C(=O)c2c(c(=[N+]=[N-])c3c(O)c5c(=O)ccc(=O)c5c(O)c23)[C@@H](O[C@@H]2C[C@H](O)[C@@H](N(C)C)[C@H](C)O2)[C@@]1(CC)O[C@H]1C[C@H](OC)[C@@H](O)[C@H](C)O1)C(=O)C=CC4=O` [Lomaiviticin C], the “DNA cleavage activity” value [2] is reported as “cleave DNA at low micromolar concentrations” and the “Effect of reducing agent on DNA cleavage” value [2] is reported as “accelerated by a reducing agent”.
In the case of `CN(C)CCCNc1c2ccccc2nc2cccc([N+](=O)[O-])c12` [Nitracrine], the “DNA cleavage over UV exposure time” value ([2]; plasmid DNA, 16 μM nitracrine, UV 365 nm for 30-60 minutes) is reported as “Cleavage was observed under all conditions”, the “DNA cleavage with exposure to UV” value ([2]; plasmid DNA, nitracrine 10-20 μM, UV 365 nm) is reported as “DNA cleavage was observed at all nitracrine concentrations” and the “DNA cleavage with exposure to UV and reducing agent DTT” value ([2]; plasmid DNA, nitracrine 10-20 μM, UV 365 nm, DTT) is reported as “including with DTT”. The “DNA cleavage activity” value [2] was “cleaves DNA when irradiated by light”.
In the case of `CN(C)CCCNc1c2ccccc2nc2cccc([N+](=O)[O-])c12` [compound 1.15, nitracrine], the pcDNA cleavage ([3]; 16 μM, UV (365 nm) from 30 to 60 min) is reported as “pcDNA cleavage”, the pcDNA cleavage ([3]; 10-20 μM, UV (365 nm), presence and absence of reducing agent DTT) is reported as “pcDNA cleavage” and the pcDNA cleavage ([3]; 10-20 μM, UV (365 nm), presence and absence of reducing agent TCEP) is reported as “pcDNA cleavage”.
In the case of G783P: AsCpf1 mutant, WED, the activity [4] is reported as “reduced activities; also recorded: Reduced activity”.
In the case of R176A: AsCpf1 mutant, REC1, the activity [4] is reported as “reduced activities; also recorded: Reduced activity”.
With R192A: AsCpf1 mutant, REC1 the activity [4] was “reduced activities; also recorded: Reduced activity”.
With R951A: AsCpf1 mutant, bridge helix the activity [4] was “reduced activities”.
